Results on four compounds are retold here after patent US9856232B1, “Dihydropyrimidinone derivatives” (KING SAUD UNIVERSITY, priority 2017, dated 2018).

The structures appear in SMILES notation. Where two headings read alike, the source gives them in different places. Marks after values point to notes of the source that are not given here.

Data set [1] relates to Gastric lesions induced by 80% ethanol. The experiment in a line: Gastric lesions induced by ethanol (ulcer index by severity scores). The following applies: Rattus norvegicus, po, read-out: Gastric lesions induced by 80% ethanol, % change; for inhibition in vivo at 12.5 mg/kg: compound 12.5 mg/kg; for inhibition in vivo at 25 mg/kg: compound 25 mg/kg. The class given is in vivo, Albino Wistar rats. As to the method: (§1) Albino Wistar rats of either sex, approximately the same age, weighing 150 to 200 g and fed on a diet of standard chow were used in this study. They were randomly divided into experimental groups of six rats each. Compounds (N-1 to N-18) 12.5, 25, and 50 mg/kg were given orally in the anti-ulcer studies and intraperitoneally for gastric secretion evaluation. The rats were sacrificed, and the stomachs removed and opened along the greater curvature, After washing with saline, the gastric lesions were quantified by a person unaware of the treatments. The animal study protocol was approved by the Research and Ethics Committee of the Experimental Animal Care Society, College of Pharmacy, King Saud University, Riyadh, Saudi Arabia.
Gastric lesions induced by ethanol: Albino rats of either sex weighing between (150-200 g) are divided into groups. The animals were fasted for 24 hours with free access to water. Animals were given test drugs or standard drug. One hour later 1 mL/200 gm of 80% ethanol is administered orally to each animal. The animals were anaesthetized 1 hour latter with anesthetic ether and stomach was incised along the greater curvature and ulceration was scored. The number of ulcers and the length of each ulcer were measured. Ulcer index was calculated using severity scores. The mucosal damage was examined by means of a magnifying glass. For each stomach the mucosal damage was assessed according to the following scoring system: 0.5 redness; 1.0 spot ulcers; 1.5 hemorrhagic streaks; 2.0 ulcers<3, but≦5; 3.0 ulcers>5. Table 1 provides the effect of compounds on gastric lesions induced by 80% ethanol (mean±SE).

Data set [2] has as its system gastric secretion in pylorus-ligated Shay rats. The experiment in a line: Pylorus-ligated rats: gastric secretion, acidity and lesion index. It counts as in vivo, Albino Wistar rats. Further details: Ulcer Index, pylorus-ligated Shay rats: scale not given here. Particulars: 50 mg/kg, i.p.; 6 h after pylorus ligation; mean ± SE. As to the method: as §1
Pylorus-ligated rats: Rats were fasted for 36 hours with access to water ad libitum before pylorus ligation under ether anesthesia was carried out. Care was taken not to cause bleeding or to occlude blood vessels. Compounds (N-3, N-8, N-11, and N-15) were administered intraperitoneally immediately after pylorus ligation. The rats were sacrificed at 6 hours after pylorus ligation. The stomachs were removed, the contents were collected, volumes measured, centrifuged and analyzed for tritratable acidity against […], NaOH at pH 7.0. Table 5 provides the effect of compounds on gastric secretion, acidity, and gastric lesion index in pylorus-ligated Shay rats (mean±SE).

The subject of data set [3] is gastric mucosal non-protein sulfhydryls, induced by 80% ethanol. The experiment in a line: Estimation of non-protein sulfhydryls (NP-SH). The class given is in vivo, Albino Wistar rats. The following applies: dose 50; stomach tissue, 80% ethanol-treated rats; mean ± SE. As to the method: as §1
Estimation of non-protein sulfhydryls (NP_SH): Gastric mucosal non-protein sulfhydryls were measured according to the method. The glandular part of the stomach was homogenized in ice-cold 0.02 mmol/L ethylenediaminetetraacetic acid (EDTA). Aliquots of 5 mL of the homogenates were mixed in 15 mL test tubes with 4 mL of distilled water and 1 mL of 50% trichloroacetic acid (TCA). The tubes were shaken intermittently for 10 minutes and centrifuged at 3000 r/min. Two milliliters of supernatant were mixed with 4 mL of 0.4 mol/L Tris buffer at pH 8.9. Then 0.1 ML of 5, 5′-dithio-bis (2-nitrobenzoic acid) (DTNB) was added and the sample was shaken. The absorbance was measured within 5 minutes of DTNB addition at 412 nm against a reagent blank.

Data set [4] deals with Hypothermic restraint stress-induced intraluminal bleeding and gastric lesion. The data set is described as follows: Hypothermic restraint stress-induced ulcers. On the set-up: Gastric Lesion Ulcer Index: scale not given here. Particulars: 50 mg/kg; hypothermic restraint 3 h; mean ± SE. It counts as in vivo, Albino Wistar rats.
Data set [5] relates to Gastric lesions induced by necrotizing agents (80% ethanol, 0.2 mol/L NaOH or 25% NaCl). The experiment in a line: Gastric lesions induced by necrotizing agents (cytoprotection). It counts as in vivo, Albino Wistar rats. The following applies: 50 mg/kg, i.p; 30 min before necrotizing agent; mean ± SE.
The test system of data set [6] is Indomethacin-induced gastric mucosal lesions. The data set is described as follows: Gastric lesions induced by Indomethacin. The class given is in vivo, Albino Wistar rats. On the set-up: scale not given here. Particulars: 50 mg/kg, i.p; 30 min before Indomethacin 30 mg/kg; mean ± SE. An excerpt: Albino Wistar rats of either sex, approximately the same age, weighing 150 to 200 g and fed on a diet of standard chow were used in this study. They were randomly divided into experimental groups of six rats each. […] The rats were sacrificed, and the stomachs removed and opened along the greater curvature, After washing with saline, the gastric lesions were quantified by a person unaware of the treatments. The animal study protocol was approved by the Research and Ethics Committee of the Experimental Animal Care Society, College of Pharmacy, King Saud University, Riyadh, Saudi Arabia.
Gastric lesions induced by Indomethacin: Indomethacin was suspended in 1.0% carboxymethylcellulose (CMC) in water (6 mg/mL) and administered orally to the 36 hour fasted rats at a dose of 30 mg/kg body weight. Control rats were treated similarly with an equivalent amount of vehicle. […] The animals were sacrificed 6 hours after treatment. The stomachs were excised, rinsed with normal saline and examined for ulceration. Table 3 provides the effect of compounds on Indomethacin-induced gastric mucosal lesions (mean±SE).

The subject of data set [7] is malondialdehyde in stomach tissue, induced by 80% ethanol. The data set is described as follows: Determination of malondialdehyde (MDA). Particulars: dose 50, 80% ethanol-treated rats, mean ± SE. It counts as in vivo, Albino Wistar rats. As to the method:
as §1
Determination of malondialdehyde (MDA): The animals were sacrificed 1 hour after ethanol administration. The stomachs were removed and each was homogenized in 0.15 mol/L KCl (at 4° C.) in a Potter-Elvehjem type C homogenizer to give a 10% w/v homogenate. Aliquots of homogenate 1 mL in volume were incubated at 37° C. for 3 hours in a metabolic shaker. Then 1 mL of 10% aqueous TCA was added and mixed. The mixture was then centrifuged at 800 g for 10 minutes. One milliliter of the supernatant was removed and mixed with 1 mL of 0.67% w/v thiobarbituric acid in water and placed in a boiling water bath for 10 minutes. The mixture was cooled and diluted with 1 mL distilled water. The absorbance of the solution was then read at 535 nm. The content of malondialdehyde (nmol/g wet tissue) (index of the magnitude of lipid peroxidation) was then calculated, by reference to a standard curve of malondialdehyde solution. Table 7 provides the effect of compounds on the levels of MDA, NP_SH, and total protein in stomach tissue induced by 80% ethanol (mean±SE).

Data set [8] concerns gastric wall mucus in stomach tissue, change induced by 80% ethanol. The data set is described as follows: Determination of gastric wall mucus (GWM). Particulars: 50 mg/kg, i.p; 80% ethanol-treated rats; mean ± SE. The class given is in vivo, Albino Wistar rats. As to the method:
as §1
Determination of gastric wall mucus (GWM): Gastric wall mucus was determined according to the modified procedure. The glandular segment of the stomach was separated from the rumen of the stomach, weighed, and transferred immediately to 10 mL of 0.1% w/v Alcian blue solution (in […] sucrose solution buffered with […] sodium acetate at pH 5. Tissue was stained for 2 hours in Alcian blue, and excess dye was removed by two successive rinses with 10 mL of […] sucrose, firstly after 15 minutes and then after 45 minutes. Dye complexed with the gastric wall mucus was extracted with 10 ml of […] magnesium chloride which was intermittently shaken for 1 minute at 30 minute intervals for 2 hours. Four milliliters of blue extract were then vigorously shaken with an equal volume of diethyl ether. The resulting emulsion was centrifuged at 4000 r/min for 10 minutes and the absorbance of the aqueous layer was recorded at 580 nm. The quantity of Alcian blue extracted per gram of wet glandular tissue was then calculated. Table 6 provides the effect of compounds on the change in gastric wall mucus in stomach tissue induced by 80% ethanol (mean±SE).

In data set [9] the test system is total protein in stomach tissue, induced by 80% ethanol. The data set is described as follows: Total protein in stomach tissue. The class given is in vivo, Albino Wistar rats. The following applies: dose 50, 80% ethanol-treated rats, mean ± SE.
The mark [10] stands for this setting: compound 50 mg/kg, vs 80% EtOH group.

One may read the melting point as the temperature, or range, at which the solid turns liquid. For the compound `COc1cc(C2NC(=O)NC=C2C(=O)c2ccc(N3CCCCC3)cc2)cc(OC)c1OC` (stereo not shown) [Compound N-16, 4-(3,4,5-Trimethoxyphenyl)-5-[4-(piperidin-1-yl)benzoyl]-3,4-dihydropyrimidin-2(1H)-one], the melting point fell in the range of 135 to 137 °C. Also, in data set [1] (vs 80% EtOH group), the inhibition in vivo at 12.5 mg/kg worked out at 7.1% and the inhibition in vivo at 25 mg/kg worked out at 17.8%. Besides, the inhibition in vivo at 50 mg/kg in data set [1] (setting [10]) was 21.4%.
On to `COc1cc(OC)c(C2NC(=O)NC=C2C(=O)c2ccc(N3CCCCC3)cc2)c(OC)c1` (stereo not shown) [Compound N-17, 4-(2,4,6-Trimethoxyphenyl)-5-[4-(piperidin-1-yl)benzoyl]-3,4-dihydropyrimidin-2(1H)-one], for which the melting point lay within 140 to 142 °C. Moreover, the inhibition in vivo at 25 mg/kg in [1] (vs 80% EtOH group) is 27.5%. Further, the inhibition in vivo at 50 mg/kg in data set [1] (setting [10]) was determined as 37.9%.
Regarding `COc1ccc(C2NC(=O)NC=C2C(=O)c2ccc(N3CCCCC3)cc2)c(OC)c1` (stereo not shown) [Compound N-18, 4-(2,4-Dimethoxyphenyl)-5-[4-(piperidin-1-yl)benzoyl]-3,4-dihydropyrimiden-2(1H)-one], the melting point lay in the range of 135 to 137 °C. In data set [1] (vs 80% EtOH group), the inhibition in vivo at 12.5 mg/kg stood at 6.4% and the inhibition in vivo at 25 mg/kg is 16.1%. Besides, the inhibition in vivo at 50 mg/kg in data set [1] (setting [10]) amounted to 22.5%.
`CNC(=C[N+](=O)[O-])NCCSCc1ccc(CN(C)C)o1` [Ranitidine, reference compound]: in data set [2], the “Titratable Acidity” value was 58.88 ± 1.85 mEg/L; the “Ulcer Index, pylorus-ligated Shay rats” value stood at 0.50 ± 0.22; the “Volume of Gastric Content” value is listed as 4.06 ± 0.18 mL. Besides, in data set [3], the NP-SH is 4.24 ± 0.15**^b nmol/g. Also, in [4], the “Gastric Lesion Ulcer Index” value is 9.66 ± 0.95 and the “Intraluminal Bleeding Score” value turned out to be 0.83 ± 0.30. For the same compound, the inhibition in vivo at 50 mg/kg in [1] (Ranitidine 50 mg/kg, vs 80% EtOH group of the row) came to 73.3%. In data set [5], the “Ulcer Index, 0.2 mol/L NaOH” value is 1.00 ± 0.36; the “Ulcer Index, 25% NaCl” value is listed as 1.16 ± 0.30; the “Ulcer Index, 80% EtOH” value is 1.50 ± 0.22. The “Ulcer Index, indomethacin-induced gastric mucosal lesions” value in [6] was 8.50 ± 0.56. The MDA in [7] is listed as 1.65 ± 0.02***^b nmol/g. In addition, the “Gastric Wall Mucus” value in data set [8] is listed as 287.24 ± 10.70***^b μg/g. Besides, the “Total Protein” value in data set [9] was 104.59 ± 1.59***^b g/L.
